The structures appear in SMILES notation. Structures can show the parent of a compound that is named as a salt. Calls of active or inactive are those of the source.

The target of experiment [1] is Peroxisome proliferator-activated receptor gamma/Nuclear receptor corepressor 2 (Homo sapiens, UniProt P37231+Q9Y618). In words: Counterscreen for NR2E3 inverse agonists: TR-FRET-based biochemical high throughput dose response assay to identify inverse agonists of the interaction between peroxisome proliferator-activated receptor gamma (PPARg) and nuclear receptor co-repressor 2 (NCOR2). It counts as functional. A general note: The purpose of a counterscreen is to sort out artefacts and off-target activity.

For experiment [2], the target named is Photoreceptor-specific nuclear receptor (Homo sapiens, UniProt Q9Y5X4). In words: ligands suppressing NR2E3 nuclear receptor activity – biochemical, TR-FRET, dose response (AID 463256). Type of experiment: functional. A general note: Time-resolved FRET reads energy transfer from a long-lived donor to a nearby acceptor.
For experiment [3], the target named is T1, Endoribonuclease toxin MazF (Escherichia coli K-12, UniProt P0AE70). As to the kind of experiment: activation of MazEF endoribonuclease cleavage – biochemical, fluorescence, single-stranded RNA substrate, uHTS hits, dose response (AID 588481). It counts as functional.
In experiment [4] the target is T1, Endoribonuclease toxin MazF. In words: substrate-only fluorescence increase artefacts – biochemical, single-stranded RNase substrate, counter-screen for MazEF activator project, dose response (AID 588502). It counts as functional.
For another experiment, the target named is T2, Caspase-3 (Homo sapiens, UniProt P42574).
T2 sequence (P42574 whole entry): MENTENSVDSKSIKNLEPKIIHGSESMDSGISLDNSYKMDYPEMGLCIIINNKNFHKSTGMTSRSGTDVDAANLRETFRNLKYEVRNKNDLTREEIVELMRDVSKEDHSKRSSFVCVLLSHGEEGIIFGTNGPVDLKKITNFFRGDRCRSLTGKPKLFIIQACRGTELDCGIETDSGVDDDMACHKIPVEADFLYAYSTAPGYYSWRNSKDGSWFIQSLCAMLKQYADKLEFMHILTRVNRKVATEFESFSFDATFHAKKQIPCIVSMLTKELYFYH
As to the kind of experiment: inhibition of recombinant caspase-3 activity – biochemical, luminescence, set 2, selectivity assay for SENP protease inhibitor project, SAR follow-up (AID 588599). Type of experiment: functional.

The target of experiment [5] is T3, Sentrin-specific protease 8 (Homo sapiens, UniProt Q96LD8).
T3 sequence (Q96LD8 whole entry): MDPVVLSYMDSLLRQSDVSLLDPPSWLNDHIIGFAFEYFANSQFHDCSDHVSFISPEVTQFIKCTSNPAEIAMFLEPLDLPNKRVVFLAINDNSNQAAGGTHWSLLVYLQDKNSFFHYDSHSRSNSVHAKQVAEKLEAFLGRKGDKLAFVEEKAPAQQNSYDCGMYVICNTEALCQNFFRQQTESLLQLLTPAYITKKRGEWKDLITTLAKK
In words: inhibition of sentrin protease 8 – biochemical, luminescence, set 2, SAR follow-up (AID 588601). Type of experiment: functional.

The target in experiment [6] is T4, Sentrin-specific protease 7 (Homo sapiens, UniProt Q9BQF6).
T4 sequence (Q9BQF6 whole entry): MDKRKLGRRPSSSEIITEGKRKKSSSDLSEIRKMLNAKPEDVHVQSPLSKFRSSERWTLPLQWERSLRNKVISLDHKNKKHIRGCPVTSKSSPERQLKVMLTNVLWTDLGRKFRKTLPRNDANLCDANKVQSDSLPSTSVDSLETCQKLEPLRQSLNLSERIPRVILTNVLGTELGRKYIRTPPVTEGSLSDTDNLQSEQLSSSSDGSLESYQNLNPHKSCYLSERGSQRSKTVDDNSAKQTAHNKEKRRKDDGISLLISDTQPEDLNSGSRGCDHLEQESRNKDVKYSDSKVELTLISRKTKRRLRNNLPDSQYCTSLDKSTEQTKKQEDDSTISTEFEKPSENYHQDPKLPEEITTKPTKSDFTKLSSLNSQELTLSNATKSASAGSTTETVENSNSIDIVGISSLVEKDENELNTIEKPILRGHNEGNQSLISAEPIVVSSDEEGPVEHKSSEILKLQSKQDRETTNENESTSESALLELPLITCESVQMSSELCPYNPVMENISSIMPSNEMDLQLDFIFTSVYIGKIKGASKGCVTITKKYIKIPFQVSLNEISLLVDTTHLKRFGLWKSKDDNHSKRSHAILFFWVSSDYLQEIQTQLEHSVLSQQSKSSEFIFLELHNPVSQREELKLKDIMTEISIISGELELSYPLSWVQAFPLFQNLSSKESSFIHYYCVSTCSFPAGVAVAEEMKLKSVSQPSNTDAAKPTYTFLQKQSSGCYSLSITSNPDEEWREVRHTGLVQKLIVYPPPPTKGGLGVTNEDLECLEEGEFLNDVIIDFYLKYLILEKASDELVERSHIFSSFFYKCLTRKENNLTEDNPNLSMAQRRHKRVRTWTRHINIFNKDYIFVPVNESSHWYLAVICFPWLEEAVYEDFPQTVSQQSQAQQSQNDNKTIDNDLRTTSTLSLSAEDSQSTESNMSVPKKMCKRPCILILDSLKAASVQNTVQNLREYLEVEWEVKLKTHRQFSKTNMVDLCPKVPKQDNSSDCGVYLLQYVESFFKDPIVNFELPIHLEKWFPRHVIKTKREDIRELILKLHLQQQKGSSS
As to the kind of experiment: inhibition of human SENP7 cleavage activity – biochemical, luminescence, set 2, SAR follow-up (AID 588600). Type of experiment: functional.

The target of experiment [7] is T5, Sentrin-specific protease 6 (Homo sapiens, UniProt Q9GZR1).
T5 sequence (Q9GZR1 whole entry): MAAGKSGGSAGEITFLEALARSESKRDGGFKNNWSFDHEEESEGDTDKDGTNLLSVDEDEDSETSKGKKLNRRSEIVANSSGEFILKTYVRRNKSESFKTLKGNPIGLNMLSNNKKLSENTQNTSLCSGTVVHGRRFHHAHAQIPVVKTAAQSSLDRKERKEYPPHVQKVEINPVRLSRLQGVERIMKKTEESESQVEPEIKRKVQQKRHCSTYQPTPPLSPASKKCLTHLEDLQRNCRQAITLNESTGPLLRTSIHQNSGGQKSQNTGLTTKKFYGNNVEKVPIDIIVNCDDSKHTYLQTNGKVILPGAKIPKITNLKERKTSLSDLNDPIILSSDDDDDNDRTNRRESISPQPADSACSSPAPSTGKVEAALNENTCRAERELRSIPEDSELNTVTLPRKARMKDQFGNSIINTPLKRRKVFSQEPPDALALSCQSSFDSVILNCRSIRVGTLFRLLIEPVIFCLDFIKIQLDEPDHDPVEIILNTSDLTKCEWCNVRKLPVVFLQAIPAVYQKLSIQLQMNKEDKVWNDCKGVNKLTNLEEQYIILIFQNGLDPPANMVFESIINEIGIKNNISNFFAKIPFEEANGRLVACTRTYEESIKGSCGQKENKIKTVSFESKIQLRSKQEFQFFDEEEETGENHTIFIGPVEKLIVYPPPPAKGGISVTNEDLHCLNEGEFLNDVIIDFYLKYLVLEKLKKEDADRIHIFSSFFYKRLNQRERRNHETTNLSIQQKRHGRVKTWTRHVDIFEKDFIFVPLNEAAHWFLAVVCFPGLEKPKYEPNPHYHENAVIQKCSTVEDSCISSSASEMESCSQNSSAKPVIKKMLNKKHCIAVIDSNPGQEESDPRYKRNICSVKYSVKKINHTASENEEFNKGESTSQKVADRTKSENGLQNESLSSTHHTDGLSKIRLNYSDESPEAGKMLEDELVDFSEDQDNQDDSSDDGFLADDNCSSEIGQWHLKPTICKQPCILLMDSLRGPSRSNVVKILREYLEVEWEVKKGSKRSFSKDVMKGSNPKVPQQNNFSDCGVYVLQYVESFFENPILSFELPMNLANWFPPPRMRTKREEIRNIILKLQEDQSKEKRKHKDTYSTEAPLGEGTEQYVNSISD
As to the kind of experiment: inhibition of human SENP6 catalytic domain – biochemical, luminescence, set 2, SAR follow-up (AID 588598). It counts as functional.

Experiment [8] is described as follows: luciferase reporter signal suppression in cells – H4 neuroglioma cells, luminescence, dose response (AID 1990). Type of experiment: functional, cell-based. On the technique in general: Reporter assays use an easily measured gene product as a stand-in for the process of interest.
For experiment [9], the system named is BJ. As to the kind of experiment: BJ-TERT fibroblast viability loss – cell-based, RAS-independent, luminescence, dose response (AID 1933). It counts as functional. The settings on record: Homo sapiens.
Experiment [10] in a line: Luminescence Cell-Based Dose Response HTS to Identify Inhibitors of 5'UTR Stem-Loop Driven Prion Protein mRNA Translation in H4 Neuroglioblastoma Cells. [Related pubchem assays: 1827 (Project Summary), 1813 (Primary HTS)]. Type of experiment: functional.
Experiment [11] is described as follows: alpha-synuclein stem-loop luciferase translation blockers – H4 neuroglioma cells, luminescence, confirmation (AID 1988). Type of experiment: functional, cell-based.
The test system of experiment [12] is BJ. In words: cells. It counts as functional, cell-based. The conditions noted are these: Homo sapiens.
For experiment [13], the system named is BJ. As to the kind of experiment: BJ-TERT-LT-ST fibroblast viability loss – cell-based, RAS-independent, luminescence, dose response (AID 1935).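 Further: BJ fibroblasts immortalized with TERT plus LT and ST oncogenes.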 The settings on record: Homo sapiens. Type of experiment: functional.
Experiment [14] in a line: DRD fibroblast viability loss – cell-based, non-viral oncogenic, luminescence, dose response (AID 1934). It counts as functional. The settings on record: Homo sapiens.
Experiment [15] addresses C-C chemokine receptor type 6 (Homo sapiens, UniProt P51684). In words: antagonism of CCR6 beta-arrestin recruitment – cell-based, luminescent beta-arrestin readout, dose response (AID 504728). It counts as functional.
The target of a further experiment is T6, Bcl-2-related protein A1 (Mus musculus, UniProt Q07440).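 Further: confirmatory dose–response counterscreen on Bfl-1, used to check hits from a UBC13 polyubiquitin inhibitor campaign.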
T6 sequence (Q07440 whole entry): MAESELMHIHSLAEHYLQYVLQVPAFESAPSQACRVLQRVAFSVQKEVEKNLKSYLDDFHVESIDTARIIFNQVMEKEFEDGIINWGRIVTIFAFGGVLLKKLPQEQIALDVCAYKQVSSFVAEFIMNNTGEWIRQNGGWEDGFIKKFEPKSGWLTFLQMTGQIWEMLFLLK
Type of experiment: functional.

Experiment [16] has as its target T7, Ubiquitin-conjugating enzyme E2 N (Homo sapiens, UniProt P61088).
T7 sequence (P61088 whole entry): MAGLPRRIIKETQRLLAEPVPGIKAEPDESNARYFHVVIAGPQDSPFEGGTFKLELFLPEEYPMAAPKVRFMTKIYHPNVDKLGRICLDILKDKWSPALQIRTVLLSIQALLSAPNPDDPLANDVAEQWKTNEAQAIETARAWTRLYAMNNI
Type of experiment: functional.

Another experiment addresses Beta-galactosidase (Escherichia coli, UniProt Q8VNN2). As to the kind of experiment: detection-enzyme interference by beta-gal modulators – biochemical, E. coli enzyme, set 3, artefact control for CCR6 antagonist project, dose response (AID 504712). It counts as functional.
The target in experiment [17] is T7, Ubiquitin-conjugating enzyme E2 N. It counts as functional. The source holds these as a separate data set.
The test system of experiment [18] is BJ. In words: growth inhibition of engineered Ras-driven BJ cells – cell-based, alamar blue fluorescence, cherrypicked samples, dose response (AID 2631).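 Further: confirmatory dose-response assay in RAS-dependent BJ fibroblasts engineered with TERT, LT and ST, with cytotoxicity read by fluorescence.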 It counts as functional. The conditions noted are these: Homo sapiens.
For experiment [19], the target named is T8, DNA repair protein RAD52 homolog (Homo sapiens, UniProt P43351).
T8 sequence (P43351 whole entry): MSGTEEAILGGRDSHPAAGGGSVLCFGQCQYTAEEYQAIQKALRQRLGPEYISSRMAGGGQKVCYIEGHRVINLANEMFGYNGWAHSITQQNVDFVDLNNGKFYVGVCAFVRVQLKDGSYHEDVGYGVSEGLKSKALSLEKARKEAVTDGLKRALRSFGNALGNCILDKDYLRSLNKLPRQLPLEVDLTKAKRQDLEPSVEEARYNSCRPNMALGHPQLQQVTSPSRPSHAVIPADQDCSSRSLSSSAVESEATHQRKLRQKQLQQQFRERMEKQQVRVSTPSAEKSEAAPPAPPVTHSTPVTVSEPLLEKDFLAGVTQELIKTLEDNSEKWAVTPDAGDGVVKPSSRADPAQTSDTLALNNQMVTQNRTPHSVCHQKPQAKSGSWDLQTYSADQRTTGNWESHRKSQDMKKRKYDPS
Type of experiment: functional, biochemical.

Another experiment concerns the target Paired box protein Pax-8 (Homo sapiens, UniProt Q06710). As to the kind of experiment: PAX8 transcriptional activity inhibition in RMG-I – RMG-I cells, luciferase, cherry-pick, dose response (AID 687027).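 Further: luciferase reporter driven by Pax8 target thyroperoxidase promoter measured by SteadyGlo luminescence.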 Type of experiment: functional, cell-based.
Experiment [20] can be described thus: general cell-killing toxicity readout – plate reader, dry powder samples, cytotoxicity control for PAX8 inhibitor project, dose response (AID 743021). Type of experiment: functional, cell-based.

T1 sequence (P0AE70 whole entry): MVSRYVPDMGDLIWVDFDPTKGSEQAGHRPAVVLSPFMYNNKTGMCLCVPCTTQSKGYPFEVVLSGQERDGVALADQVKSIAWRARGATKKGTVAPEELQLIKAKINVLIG
Chain of Photoreceptor-specific nuclear receptor (Q9Y5X4 whole entry): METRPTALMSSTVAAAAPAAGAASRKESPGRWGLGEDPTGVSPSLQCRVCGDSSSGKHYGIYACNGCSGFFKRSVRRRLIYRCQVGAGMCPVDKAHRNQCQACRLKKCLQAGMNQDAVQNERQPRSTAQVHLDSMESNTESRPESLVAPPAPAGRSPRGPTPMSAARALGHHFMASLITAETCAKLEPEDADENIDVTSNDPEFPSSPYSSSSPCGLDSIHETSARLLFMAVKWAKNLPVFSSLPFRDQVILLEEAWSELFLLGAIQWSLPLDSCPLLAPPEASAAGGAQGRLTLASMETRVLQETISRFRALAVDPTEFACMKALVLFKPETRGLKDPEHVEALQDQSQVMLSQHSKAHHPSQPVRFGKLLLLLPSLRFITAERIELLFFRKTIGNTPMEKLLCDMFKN
Chain of Beta-galactosidase (Q8VNN2 whole entry): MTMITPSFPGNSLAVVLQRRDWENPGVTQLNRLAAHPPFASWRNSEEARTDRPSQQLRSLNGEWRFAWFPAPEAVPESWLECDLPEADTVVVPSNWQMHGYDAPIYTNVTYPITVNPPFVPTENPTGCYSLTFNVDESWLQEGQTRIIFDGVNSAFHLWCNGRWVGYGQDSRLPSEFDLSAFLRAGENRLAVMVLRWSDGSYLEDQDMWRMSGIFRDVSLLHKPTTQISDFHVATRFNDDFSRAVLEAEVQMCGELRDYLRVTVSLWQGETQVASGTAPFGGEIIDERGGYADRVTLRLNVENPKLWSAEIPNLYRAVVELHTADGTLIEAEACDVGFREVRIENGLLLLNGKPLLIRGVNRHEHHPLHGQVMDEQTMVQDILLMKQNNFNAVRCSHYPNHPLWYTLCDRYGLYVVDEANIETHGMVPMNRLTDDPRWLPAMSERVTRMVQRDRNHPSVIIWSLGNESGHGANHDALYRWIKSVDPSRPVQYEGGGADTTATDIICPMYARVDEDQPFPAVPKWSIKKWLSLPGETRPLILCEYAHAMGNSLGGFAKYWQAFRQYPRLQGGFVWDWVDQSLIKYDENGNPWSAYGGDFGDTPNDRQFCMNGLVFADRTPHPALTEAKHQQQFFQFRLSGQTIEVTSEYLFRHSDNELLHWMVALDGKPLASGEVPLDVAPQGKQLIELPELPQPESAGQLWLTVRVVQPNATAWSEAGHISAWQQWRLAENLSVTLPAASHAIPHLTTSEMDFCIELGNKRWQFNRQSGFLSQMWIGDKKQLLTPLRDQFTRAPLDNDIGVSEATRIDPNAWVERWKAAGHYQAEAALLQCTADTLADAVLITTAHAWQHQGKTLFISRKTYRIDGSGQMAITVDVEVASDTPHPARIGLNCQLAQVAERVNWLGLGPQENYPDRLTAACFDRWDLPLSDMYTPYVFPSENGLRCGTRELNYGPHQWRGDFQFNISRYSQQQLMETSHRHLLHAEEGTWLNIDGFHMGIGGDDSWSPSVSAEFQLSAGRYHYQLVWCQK
Chain of C-C chemokine receptor type 6 (P51684 whole entry): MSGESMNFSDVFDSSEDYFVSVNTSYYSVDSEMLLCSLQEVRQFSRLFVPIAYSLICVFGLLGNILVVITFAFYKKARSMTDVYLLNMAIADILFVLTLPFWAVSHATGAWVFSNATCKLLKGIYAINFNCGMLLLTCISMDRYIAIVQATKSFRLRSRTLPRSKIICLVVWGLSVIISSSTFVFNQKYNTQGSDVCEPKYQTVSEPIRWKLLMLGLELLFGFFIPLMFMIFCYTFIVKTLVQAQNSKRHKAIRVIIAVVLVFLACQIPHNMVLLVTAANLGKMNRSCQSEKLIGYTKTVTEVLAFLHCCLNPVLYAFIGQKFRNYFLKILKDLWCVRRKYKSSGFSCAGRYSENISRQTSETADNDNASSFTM
Chain of Peroxisome proliferator-activated receptor gamma/Nuclear receptor corepressor 2 (P37231 whole entry): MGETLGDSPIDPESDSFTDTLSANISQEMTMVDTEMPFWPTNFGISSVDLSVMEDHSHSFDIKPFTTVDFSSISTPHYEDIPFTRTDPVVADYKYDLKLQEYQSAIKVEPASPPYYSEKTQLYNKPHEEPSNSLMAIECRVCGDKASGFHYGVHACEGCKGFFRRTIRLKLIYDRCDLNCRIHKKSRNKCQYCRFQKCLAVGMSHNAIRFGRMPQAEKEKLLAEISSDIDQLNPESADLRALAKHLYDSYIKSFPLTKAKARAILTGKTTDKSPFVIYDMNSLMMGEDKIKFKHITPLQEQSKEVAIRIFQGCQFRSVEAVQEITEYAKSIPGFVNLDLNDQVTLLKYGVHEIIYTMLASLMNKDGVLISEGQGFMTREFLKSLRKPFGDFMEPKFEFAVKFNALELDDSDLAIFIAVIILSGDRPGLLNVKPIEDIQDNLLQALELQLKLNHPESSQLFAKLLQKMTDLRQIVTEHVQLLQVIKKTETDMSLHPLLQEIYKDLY
Chain of Peroxisome proliferator-activated receptor gamma/Nuclear receptor corepressor 2 (Q9Y618 whole entry): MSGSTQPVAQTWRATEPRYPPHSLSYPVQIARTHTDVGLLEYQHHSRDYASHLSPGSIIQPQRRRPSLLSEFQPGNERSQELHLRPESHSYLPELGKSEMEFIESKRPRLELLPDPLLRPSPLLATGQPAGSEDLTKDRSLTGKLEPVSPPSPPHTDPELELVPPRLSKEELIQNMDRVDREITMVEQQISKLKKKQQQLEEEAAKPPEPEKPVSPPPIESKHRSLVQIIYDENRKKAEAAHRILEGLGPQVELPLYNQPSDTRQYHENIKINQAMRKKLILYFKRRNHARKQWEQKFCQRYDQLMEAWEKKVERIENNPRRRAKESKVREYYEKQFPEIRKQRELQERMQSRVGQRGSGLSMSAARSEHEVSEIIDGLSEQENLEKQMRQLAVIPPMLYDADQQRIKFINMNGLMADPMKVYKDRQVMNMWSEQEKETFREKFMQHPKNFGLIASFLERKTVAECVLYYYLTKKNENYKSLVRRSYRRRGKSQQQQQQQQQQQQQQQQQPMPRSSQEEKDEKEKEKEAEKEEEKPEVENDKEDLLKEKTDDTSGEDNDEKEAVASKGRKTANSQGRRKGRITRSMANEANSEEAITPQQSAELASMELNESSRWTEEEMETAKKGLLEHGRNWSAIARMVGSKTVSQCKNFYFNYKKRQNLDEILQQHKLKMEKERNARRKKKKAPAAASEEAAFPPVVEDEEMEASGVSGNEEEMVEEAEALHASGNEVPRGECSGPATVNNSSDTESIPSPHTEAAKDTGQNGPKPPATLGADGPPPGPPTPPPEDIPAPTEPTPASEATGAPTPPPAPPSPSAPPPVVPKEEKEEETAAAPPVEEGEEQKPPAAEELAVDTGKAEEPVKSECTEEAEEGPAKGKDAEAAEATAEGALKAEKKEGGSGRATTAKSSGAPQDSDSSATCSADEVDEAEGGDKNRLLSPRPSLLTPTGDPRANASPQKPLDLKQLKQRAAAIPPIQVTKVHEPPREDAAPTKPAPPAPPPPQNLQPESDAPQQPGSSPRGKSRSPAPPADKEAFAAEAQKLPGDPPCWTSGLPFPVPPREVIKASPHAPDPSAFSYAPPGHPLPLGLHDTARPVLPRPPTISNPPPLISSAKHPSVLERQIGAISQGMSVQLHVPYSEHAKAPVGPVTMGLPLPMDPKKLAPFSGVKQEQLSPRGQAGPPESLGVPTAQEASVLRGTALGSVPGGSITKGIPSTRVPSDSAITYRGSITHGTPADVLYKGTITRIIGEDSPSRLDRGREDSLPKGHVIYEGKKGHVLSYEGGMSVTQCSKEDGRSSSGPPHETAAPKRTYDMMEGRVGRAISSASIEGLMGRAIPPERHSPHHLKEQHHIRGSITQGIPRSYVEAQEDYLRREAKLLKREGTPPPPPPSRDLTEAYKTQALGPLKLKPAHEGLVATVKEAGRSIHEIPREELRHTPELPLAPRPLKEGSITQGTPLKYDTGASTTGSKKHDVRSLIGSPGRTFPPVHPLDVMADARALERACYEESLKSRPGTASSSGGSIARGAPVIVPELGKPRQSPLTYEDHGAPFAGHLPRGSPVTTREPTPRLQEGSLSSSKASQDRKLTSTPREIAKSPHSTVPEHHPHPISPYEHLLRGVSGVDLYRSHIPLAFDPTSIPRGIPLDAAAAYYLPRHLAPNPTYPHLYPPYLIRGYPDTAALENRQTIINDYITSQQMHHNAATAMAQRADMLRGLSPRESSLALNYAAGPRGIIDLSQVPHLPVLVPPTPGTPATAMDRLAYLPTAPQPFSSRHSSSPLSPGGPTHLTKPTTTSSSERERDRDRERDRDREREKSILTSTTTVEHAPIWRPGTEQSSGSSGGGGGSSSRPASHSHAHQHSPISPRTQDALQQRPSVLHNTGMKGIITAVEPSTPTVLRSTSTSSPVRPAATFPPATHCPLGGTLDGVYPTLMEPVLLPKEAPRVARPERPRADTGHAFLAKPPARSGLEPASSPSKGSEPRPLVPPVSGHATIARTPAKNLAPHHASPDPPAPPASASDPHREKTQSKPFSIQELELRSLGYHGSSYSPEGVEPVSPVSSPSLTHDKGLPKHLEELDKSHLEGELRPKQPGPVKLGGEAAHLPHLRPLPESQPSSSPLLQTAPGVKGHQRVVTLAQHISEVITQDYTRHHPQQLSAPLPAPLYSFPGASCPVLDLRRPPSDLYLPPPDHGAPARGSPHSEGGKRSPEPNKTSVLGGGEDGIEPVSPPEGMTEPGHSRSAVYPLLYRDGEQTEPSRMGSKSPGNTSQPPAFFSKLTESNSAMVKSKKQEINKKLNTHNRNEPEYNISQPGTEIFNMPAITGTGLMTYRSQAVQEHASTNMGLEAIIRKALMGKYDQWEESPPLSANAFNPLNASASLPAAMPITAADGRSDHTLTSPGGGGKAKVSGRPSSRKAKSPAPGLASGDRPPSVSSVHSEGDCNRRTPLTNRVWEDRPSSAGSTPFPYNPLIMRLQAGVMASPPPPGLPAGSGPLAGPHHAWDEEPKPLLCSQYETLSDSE

Broadly, the IC50 is the concentration that inhibits the measured activity by half. A word on the EC50: it is the concentration that produces a half-maximal response. On to `Cn1nc(-c2ccc(C(=O)Nc3cccc(Cl)c3)cc2)c2ccccc2c1=O`, for which the IC50 in experiment [1] is 1.78 µM (active); in [2], 3.95 µM (active). In addition, the EC50 in [3] is 57.9 µM (inactive); in experiment [4], 14.8 µM (active).

With `O=C1CN(C(=O)C(=O)c2c[nH]c3ccccc23)c2ccccc2N1`, the IC50 (on Caspase-3; in experiment [5]; in experiment [6]; in [7]) was > 99 µM (inactive) throughout.

As usually defined, the AC50 is the concentration at which the activity in the assay is half-maximal. Take `CCCCCNC(=N)N/N=C/c1c[nH]c2ccc(OC)cc12` [TEGASEROD MALEATE]: the EC50 in experiment [8] is > 60 µM (not active); in the experiment with BJ [9], 5.21 µM (inconclusive); in experiment [10], > 120 µM (not active); in experiment [11], 7.96 µM (active); with BJ [12] it was 7.15 µM (active); in the experiment on BJ [13], 3.94 µM (active). Also, the figures for the EC50 (in [14]; with BJ [18]) were 5.36 µM (inconclusive) and 3.92 µM (inconclusive), respectively. The IC50 in experiment [15] is 23.4 µM (inactive); on Bcl-2-related protein A1, > 20 µM (inactive); in experiment [16], 12.5 µM (active); at Beta-galactosidase, > 66.6 µM (inactive); in experiment [17], 8.2 µM (active). Moreover, the AC50 was 16.7 µM (active) in experiment [19], 12.4 µM (active) on Paired box protein Pax-8 and 23.2 µM (active) in [20].

Source of the values: ChEMBL document CHEMBL1201862, “PubChem BioAssay data set” (2004).
